# Results published in ChEMBL document CHEMBL2074317, “Functional characterization of an organic cation transporter (hOCT1) in a transiently transfected human cell line (HeLa)” (J Pharmacol Exp Ther, 1998).
# T1: Solute carrier family 22 member 1 (Homo sapiens, UniProt O15245)
# T1 sequence (O15245 whole entry): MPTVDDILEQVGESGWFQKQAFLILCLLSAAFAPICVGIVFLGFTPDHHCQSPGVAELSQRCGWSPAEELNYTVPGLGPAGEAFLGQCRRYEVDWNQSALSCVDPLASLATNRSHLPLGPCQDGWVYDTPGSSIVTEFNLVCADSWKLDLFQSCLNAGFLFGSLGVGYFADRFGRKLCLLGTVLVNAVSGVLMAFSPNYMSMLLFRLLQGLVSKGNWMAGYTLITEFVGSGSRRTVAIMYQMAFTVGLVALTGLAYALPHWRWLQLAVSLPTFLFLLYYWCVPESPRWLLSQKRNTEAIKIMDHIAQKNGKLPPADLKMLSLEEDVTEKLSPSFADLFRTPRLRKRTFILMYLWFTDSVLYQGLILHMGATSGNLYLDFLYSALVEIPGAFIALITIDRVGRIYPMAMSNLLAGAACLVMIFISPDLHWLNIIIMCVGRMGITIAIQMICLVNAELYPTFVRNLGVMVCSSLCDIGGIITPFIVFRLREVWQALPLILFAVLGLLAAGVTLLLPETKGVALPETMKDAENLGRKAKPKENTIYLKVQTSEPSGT
# Target: T1, Solute carrier family 22 member 1
# Assay: TP_TRANSPORTER: inhibition of TEA uptake in OCT1-expressing HeLa cells
# Format: functional, cell-based
row,Molecule,Ki
1,Cc1ncc2n1-c1ccc(Cl)cc1C(c1ccccc1F)=NC2 [MIDAZOLAM],3.7 µM
2,CCN(CC)CCNC(=O)c1ccc(N)cc1 [PROCAINAMIDE],73.9 µM
3,CCCCC[N+](CCCCC)(CCCCC)CCCCC [TETRAPENTYLAMMONIUM],7.46 µM
4,C[C@]12C[C@H](O)[C@H]3[C@@H](CCC4=CC(=O)CC[C@@]43C)[C@@H]1CC[C@@H]2C(=O)CO [CORTICOSTERONE],7.02 µM
5,Clc1cccc(Cl)c1N=C1NCCN1 [CLONIDINE],0.55 µM
6,CNCCCN1c2ccccc2CCc2ccccc21 [DESIPRAMINE],5.36 µM
7,CNC(=O)c1cccnc1 [NICOTINYL METHYLAMIDE],7700 µM
8,CN/C(=N/CCSCc1nc[nH]c1C)NC#N [CIMETIDINE],166 µM
9,C[n+]1ccc(-c2ccccc2)cc1,12.3 µM
10,CCN1/C(=C/c2ccc3ccccc3[n+]2CC)C=Cc2ccccc21,2.73 µM
11,CC(=O)O[C@H]1C[C@@H]2CC[C@@H]3[C@H](CC[C@@]4(C)[C@H]3C[C@H]([N+]3(C)CCCCC3)[C@@H]4OC(C)=O)[C@@]2(C)C[C@@H]1N1CCCCC1 [VECURONIUM],232 µM
12,CC[N+](CC)(CC)CC [TETRYLAMMONIUM],161 µM
13,CCCC(=O)Nc1ccc(OCC(O)CNC(C)C)c(C(C)=O)c1 (stereo not given) [ACEBUTOLOL],95.8 µM

# Target: T1, Solute carrier family 22 member 1
# Assay: TP_TRANSPORTER: inhibition of TEA uptake (TEA: 5 uM, Amantadine: 100 uM) in OCT1-expressing HeLa cells
# Format: functional, cell-based
row,Molecule,Activity
1,NC12CC3CC(CC(C3)C1)C2 [AMANTADINE],inhibitor [(at a rough estimate) 60 % of control]

# Substrate: CC[N+](CC)(CC)CC
# Assay: cells, lysate or membranes named
row,Molecule,Km
1,Solute carrier family 22 member 1 (Homo sapiens) (protein) MPTVDDILEQVGESGWFQKQAFLILCLLSAAFAPICVGIVFLGFTPDHHCQSPGVAELSQRCGWSPAEELNYTVPGLGPAGEAFLGQCRRYEVDWNQSALSCVDPLASLATNRSHLPLGPCQDGWVYDTPGSSIVTEFNLVCADSWKLDLFQSCLNAGFLFGSLGVGYFADRFGRKLCLLGTVLVNAVSGVLMAFSPNYMSMLLFRLLQGLVSKGNWMAGYTLITEFVGSGSRRTVAIMYQMAFTVGLVALTGLAYALPHWRWLQLAVSLPTFLFLLYYWCVPESPRWLLSQKRNTEAIKIMDHIAQKNGKLPPADLKMLSLEEDVTEKLSPSFADLFRTPRLRKRTFILMYLWFTDSVLYQGLILHMGATSGNLYLDFLYSALVEIPGAFIALITIDRVGRIYPMAMSNLLAGAACLVMIFISPDLHWLNIIIMCVGRMGITIAIQMICLVNAELYPTFVRNLGVMVCSSLCDIGGIITPFIVFRLREVWQALPLILFAVLGLLAAGVTLLLPETKGVALPETMKDAENLGRKAKPKENTIYLKVQTSEPSGT,229 µM
